Experimental findings from ChEMBL document CHEMBL1148029, “Synthesis and radiopharmacological characterization of 2beta-carbo-2'-[18F]fluoroethoxy-3beta-(4-bromo-phenyl)tropane ([18F]MCL-322) as a PET radiotracer for imaging the dopamine transporter (DAT)” (Bioorg Med Chem, 2007) are described below.

The structures appear in SMILES notation.

Data set [1] can be described thus: Biodistribution in Wistar rat hair and skin at 300 uCi, iv after 120 mins. The following applies: in vivo, 2 h. The data set is classed as ADME, organism-based.
Data set [2] is described as follows: Biodistribution in Wistar rat fat at 300 uCi, iv after 20 mins. The data set is classed as ADME, organism-based, Adipose tissue. The note with it: in vivo.
The next data set deals with Lung. The experiment in a line: Biodistribution in Wistar rat lung at 300 uCi, iv after 60 mins. It counts as ADME, organism-based. The following applies: in vivo, 1 h.
Another data set deals with Striatum. The experiment in a line: Biodistribution in Wistar rat striatum at 300 uCi, iv after 5 mins. The data set is classed as ADME, organism-based. The following applies: in vivo.
Data set [3] deals with Blood. The experiment in a line: Biodistribution in Wistar rat blood at 300 uCi, iv after 60 mins in presence of GBR-12909. It counts as ADME, organism-based. The following applies: in vivo, 1 h.
The subject of data set [4] is Blood. As to the kind of experiment: Biodistribution in Wistar rat blood at 300 uCi, iv after 60 mins in presence of nisoxetine. The data set is classed as ADME, organism-based. The note with it: in vivo, 1 h.
For a further data set, the system named is Testes. The experiment in a line: Biodistribution in Wistar rat testes at 300 uCi, iv after 240 mins. The data set is classed as ADME, organism-based, Testis. The following applies: in vivo, 4 h.
Data set [5] is described as follows: Metabolic stability in Wistar rat striatum at 1 mCi, iv after 60 mins. The data set is classed as ADME, organism-based. The following applies: read-out: Stability.

Take `CN1C2CCC1C(C(=O)OCC[18F])C(c1ccc(Br)cc1)C2` (stereo not drawn): the Drug uptake in data set [1] is on record as 0.17 % ID/g; in data set [2] it was 0.48 % ID/g; in the data set on Lung, 1.14 % ID/g; in the data set on Striatum, 3.23 % ID/g; in the data set with Blood [3], 0.04 % ID/g; in the data set with Blood [4] it was 0.04 % ID/g. Also, in the data set on Testes, the Drug uptake was 0.17 % ID/g. Further, in data set [5], the remaining at 1 h was more than 90%.
